From US6461997B1, “Triazole sulfones having herbicidal activity” (Monsanto Technology LLC, priority 1999, dated 2002)

Key:
DATST (jimsonweed) = experiment: Pre-emergence herbicidal activity, warm season; format: in vivo, Datura stramonium; settings: GR80 = lowest tested rate (300, 100, 30, 10 g/ha) with 80% or greater inhibition; approx. 14 days after treating; 30/21° C.
Method in brief: (§1)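 GR80 values derive from percent inhibition relative to untreated plants, read roughly 14 days after sowing and pre-emergence soil-surface treatment (compound in 50:50 acetone/water; rates typically 10, 30, 100, 300 g/ha). Warm-season weeds grew at 30/21° C day/night, cool-season ones at 18/13° C; an asterisk marks activity without reaching 80% at the highest rate.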

[1] = test system: IPOSS (annual morningglory); experiment: Pre-plant incorporated (PPI) herbicidal activity, warm season; format: in vivo, Ipomoea spp.; settings: PPI application
Method: In another set of tests, the pre-plant incorporated (PPI) activity of compounds of this invention was evaluated on the same species as for the pre-emergence tests described above. In the PPI tests the following procedure, designed to simulate PPI application, was used.
A pre-prepared topsoil mixture (described above) was placed in a pot and compacted to a depth of 1.0 to 1.25 cm from the top of the pot. Seeds of each of several monocotyledonous and dicotyledonous annual plant species were placed on top of the soil. A sufficient quantity of soil to cover the seeds and level fill the pot was weighed into an open container. A known amount of the test compound was dissolved or suspended in an organic solvent and applied by spraying to this cover soil. The cover soil was thoroughly mixed to distribute the test compound throughout the cover soil, and was then applied as a cover layer over the seeds. Untreated soil was used as a cover layer for control pots. After treatment the plants were placed in a greenhouse where they received 0.64 cm of overhead irrigation. All subsequent watering consisted of a light overhead mist and/or subirrigation as needed for germination and growth. Tables 9 and 10 below relate to warm season plant species which were placed after pre-emergence treatment in a greenhouse with a 30/21° C. day/night temperature regime. Tables 11 and 12 below relates to cool season plant species placed after pre-emergence treatment in a greenhouse or growth chamber with an 18/13° C. day/night temperature regime. Only the compounds of Examples 1, 6, 8, 11, 13 and 15-20 were included in PPI tests.
Approximately 14 days after planting and treating, the plants were observed and herbicidal efficacy recorded as percent inhibition by comparison with untreated plants.

AVEFA (wild oat) = experiment: Pre-emergence herbicidal activity, cool season; format: in vivo, Avena fatua; settings: GR80 = lowest tested rate (300, 100, 30, 10 g/ha) with 80% or greater inhibition; approx. 14 days after treating; 18/13° C.
Method in brief: as §1

Row | Structure (SMILES) | Pre-emergence activity (GR80) DATST (DATST (jimsonweed)) | Percent inhibition IPOSS ([1]; 100 g/ha) | Percent inhibition IPOSS ([1]; 300 g/ha) | Percent inhibition IPOSS ([1]; 900 g/ha) | Percent inhibition IPOSS ([1]; 30 g/ha) | Pre-emergence activity (GR80) AVEFA (AVEFA (wild oat)) | inhibition at 30 g/ha ([1]; Ipomoea, 30 g/ha, read-out: Percent inhibition IPOSS) | inhibition at 100 g/ha ([1]; Ipomoea, 100 g/ha, read-out: Percent inhibition IPOSS) | inhibition at 300 g/ha ([1]; Ipomoea, 300 g/ha, read-out: Percent inhibition IPOSS) | inhibition at 900 g/ha ([1]; Ipomoea, 900 g/ha, read-out: Percent inhibition IPOSS) | Percent inhibition IPOSS ([1]; 10 g/ha)
1 | CCN(CC)C(=O)n1cnc(S(=O)(=O)C(F)(F)F)n1 [Example 2] | 300 g/ha | 20% | 100% | 95% |  |  |  |  |  |  | 
2 | CCN(CC)C(=O)n1cnc(S(=O)(=O)C(F)(F)Cl)n1 [Example 3] | 100 g/ha | 50% | 100% | 80% | 0% |  |  |  |  |  | 
3 | CCN(CC)C(=O)n1cnc(S(=O)(=O)C(F)(F)C(F)(F)Br)n1 [Example 4] | 300 g/ha | 80% | 60% | 100% | 0% | 30 g/ha |  |  |  |  | 
4 | CCN(CC)C(=O)n1cnc(S(=O)(=O)C(F)(F)C(=O)c2ccccc2)n1 [Example 6] |  |  |  |  |  | 300 g/ha |  |  |  |  | 
5 | CCSC(F)(F)S(=O)(=O)c1ncn(C(=O)N(CC)CC)n1 [Example 8, 1-(N,N-diethylcarbamoyl)-3-[difluoro(ethylthio)methylsulfonyl]-1,2,4-triazole] | 300 g/ha |  |  |  |  | 300 g/ha | 0% | 70% | 90% | 100% | 
6 | CCN(CC)C(=O)n1cnc(S(=O)(=O)C(F)(F)SC)n1 [Example 9] | 300 g/ha | 100% | 40% | 100% | 0% | 300 g/ha |  |  |  |  | 
7 | CCN(CC)C(=O)n1cnc(S(=O)(=O)C(F)(F)SCc2ccccc2)n1 [Example 10] |  | 0% | 0% | 50% | 0% |  |  |  |  |  | 0%
8 | CCN(CC)C(=O)n1cnc(S(=O)(=O)C(F)(F)SCC(=O)OC)n1 [Example 11] |  | 0% | 0% | 0% | 0% |  |  |  |  |  | 0%
9 | CCN(CC)C(=O)n1cnc(S(=O)(=O)C(F)(F)SCCOC)n1 [Example 13] |  | 0% | 10% | 100% | 0% | 300 g/ha |  |  |  |  | 0%
10 | CCN(CC)C(=O)n1cnc(S(=O)(=O)C(F)(F)C(F)(F)SC)n1 [Example 14] |  |  |  |  |  | 300 g/ha |  |  |  |  | 
11 | CCN(CC)C(=O)n1cnc(S(=O)(=O)C(F)(F)C(F)F)n1 [Example 16] | 300 g/ha | 0% | 0% | 50% | 0% | 300 g/ha |  |  |  |  | 0%
12 | C=CCC(F)(F)S(=O)(=O)c1ncn(C(=O)N(CC)CC)n1 [Example 17, 1-(N,N-diethylcarbamoyl)-3-[(1,1-difluoro-3-butenyl)sulfonyl]-1,2,4-triazole] |  |  |  |  |  | 100 g/ha |  |  |  |  | 
13 | C=C(C)CC(F)(F)S(=O)(=O)c1ncn(C(=O)N(CC)CC)n1 [Example 18] | 300 g/ha |  |  |  |  | * (activity observed, at least at highest rate, but <80% inhibition) |  |  |  |  | 
14 | C=C(Br)CC(F)(F)S(=O)(=O)c1ncn(C(=O)N(CC)CC)n1 [Example 19] | * (activity observed, at least at highest rate, but <80% inhibition) |  |  |  |  | * (activity observed, at least at highest rate, but <80% inhibition) |  |  |  |  | 
